Measurements as given in patent US10681908B2, “Molecules having pesticidal utility, and intermediates, compositions, and processes, related thereto” (Dow AgroSciences LLC, priority 2016, dated 2020).

What was measured:
[1] = test system: Beet Armyworm (Spodoptera exigua, LAPHEG); experiment: Bioassay on Beet Armyworm (BAW), 128-well diet tray assay; type: in vivo; details: 168 h, 50 μg/cm^2 on artificial diet, second instar larvae, five to seven days, 25° C., read-out: BAW % Control (or Mortality) rating
Description: (§1) Example A: Bioassays on Beet Armyworm (Spodoptera Exigua, LAPHEG) (“BAW”), Corn Earworm (Helicoverpa zea, HELIZE) (“CEW”), and Cabbage Looper (Trichoplusia ni, TRIPNI) (“CL”)
(§2) Certain molecules disclosed in this document were tested against BAW, CEW, and CL using procedures described in the following examples. In the reporting of the results, the “BAW, CEW, & CL Rating Table” was used (See Table Section).
Bioassays on BAW were conducted using a 128-well diet tray assay. One to five second instar BAW larvae were placed in each well (3 mL) of the diet tray that had been previously filled with 1 mL of artificial diet to which 50 μg/cm^2 of the test molecule (dissolved in 50 μL of 90:10 acetone-water mixture) had been applied (to each of eight wells) and then allowed to dry. Trays were covered with a clear self-adhesive cover and held at 25° C., 14:10 light-dark for five to seven days. Percent mortality was recorded for the larvae in each well; activity in the eight wells was then averaged. The results are indicated in the table entitled “Table ABC: Biological Results” (See Table Section).
(§3) Bioassays on BAW and CL were conducted according to the procedures outlined in Example A: Bioassays on Beet Armyworm (“BAW”) and Cabbage Looper (“CL”) using the indicated concentrations.

[2] = test system: Cabbage Looper (Trichoplusia ni, TRIPNI); experiment: Bioassay on Cabbage Looper (CL), 128-well diet tray assay; type: in vivo; details: 168 h, 50 μg/cm^2 on artificial diet, second instar larvae, five to seven days, 25° C., read-out: CL % Control (or Mortality) rating
Description: as §1, §2
Bioassays on CL were conducted using a 128-well diet tray assay. One to five second instar CL larvae were placed in each well (3 mL) of the diet tray that had been previously filled with 1 mL of artificial diet to which 50 μg/cm^2 of the test molecule (dissolved in 50 μL of 90:10 acetone-water mixture) had been applied (to each of eight wells) and then allowed to dry. Trays were covered with a clear self-adhesive cover and held at 25° C., 14:10 light-dark for five to seven days. Percent mortality was recorded for the larvae in each well; activity in the eight wells was then averaged. The results are indicated in the table entitled “Table ABC: Biological Results” (See Table Section).
as §3

| SMILES | mortality at 50 µg/cm2 [1] | mortality at 50 µg/cm2 [2] |
| --- | --- | --- |
| C[C@H](CS(=O)(=O)CC(F)(F)F)NC(=O)c1ccc(/C(F)=C/C(c2cc(Cl)cc(C(F)(F)F)c2)C(F)(F)F)cc1C(F)(F)F (stereo partly drawn) [F81, 4-((Z)-3-(3-Chloro-5-(trifluoromethyl)phenyl)-1,4,4,4-tetrafluorobut-1-en-1-yl)-N—((R)-1-((2,2,2-trifluoroethyl)sulfonyl)propan-2-yl)-2-(trifluoromethyl)benzamide] | 50 to 100% | 50 to 100% |
| C[C@H](CSCC(F)F)NC(=O)c1ccc(/C(F)=C/C(c2cc(Cl)c(Cl)c(Cl)c2)C(F)(F)F)cc1C(F)(F)F (stereo partly drawn) [F82, N—((R)-1-((2,2-Difluoroethyl)thio)propan-2-yl)-4-((Z)-1,4,4,4-tetrafluoro-3-(3,4,5-trichlorophenyl)but-1-en-1-yl)-2-(trifluoromethyl)benzamide] | 50 to 100% | 50 to 100% |
| C[C@H](CSCC#N)NC(=O)c1ccc(/C(F)=C/C(c2cc(Cl)c(Cl)c(Cl)c2)C(F)(F)F)cc1C(F)(F)F (stereo partly drawn) [F83, N—((R)-1-((Cyanomethyl)thio)propan-2-yl)-4-((Z)-1,4,4,4-tetrafluoro-3-(3,4,5-trichlorophenyl)but-1-en-1-yl)-2-(trifluoromethyl)benzamide] | 50 to 100% | 50 to 100% |
| C[C@H](CSCCF)NC(=O)c1ccc(/C(F)=C/C(c2cc(Cl)c(Cl)c(Cl)c2)C(F)(F)F)cc1C(F)(F)F (stereo partly drawn) [F84, N—((R)-1-((2-Fluoroethyl)thio)propan-2-yl)-4-((Z)-1,4,4,4-tetrafluoro-3-(3,4,5-trichlorophenyl)but-1-en-1-yl)-2-(trifluoromethyl)benzamide] | 50 to 100% | 50 to 100% |
| C[C@H](CS(=O)(=O)CCF)NC(=O)c1ccc(/C(F)=C/C(c2cc(Cl)c(Cl)c(Cl)c2)C(F)(F)F)cc1C(F)(F)F (stereo partly drawn) [F85, N—((R)-1-((2-Fluoroethyl)sulfonyl)propan-2-yl)-4-((Z)-1,4,4,4-tetrafluoro-3-(3,4,5-trichlorophenyl)but-1-en-1-yl)-2-(trifluoromethyl)benzamide] | 50 to 100% | 50 to 100% |
| C[C@H](C[S+]([O-])CC(F)F)NC(=O)c1ccc(/C(F)=C/C(c2cc(Cl)c(Cl)c(Cl)c2)C(F)(F)F)cc1C(F)(F)F (stereo partly drawn) [F86, N-((2R)-1-((2,2-Difluoroethyl)sulfinyl)propan-2-yl)-4-((Z)-1,4,4,4-tetrafluoro-3-(3,4,5-trichlorophenyl)but-1-en-1-yl)-2-(trifluoromethyl)benzamide] | 50 to 100% | 50 to 100% |
| C[C@H](CS(C)(=O)=O)NC(=O)c1ccc(/C(F)=C/C(c2cc(Cl)c(Cl)c(Cl)c2)C(F)(F)F)cc1C(F)(F)F (stereo partly drawn) [F87, N—((R)-1-(methylsulfonyl)propan-2-yl)-4-((Z)-1,4,4,4-tetrafluoro-3-(3,4,5-trichlorophenyl)but-1-en-1-yl)-2-(trifluoromethyl)benzamide] | 50 to 100% | 50 to 100% |
| CSC(C)CNC(=O)c1ccc(/C(F)=C/C(c2cc(Cl)c(Cl)c(Cl)c2)C(F)(F)F)cc1C(F)(F)F (stereo not drawn) [F89, (Z)—N-(2-(Methylthio)propyl)-4-(1,4,4,4-tetrafluoro-3-(3,4,5-trichlorophenyl)but-1-en-1-yl)-2-(trifluoromethyl)benzamide] | 50 to 100% | 50 to 100% |
| CC(CNC(=O)c1ccc(/C(F)=C/C(c2cc(Cl)c(Cl)c(Cl)c2)C(F)(F)F)cc1C(F)(F)F)[S+](C)[O-] (stereo not drawn) [F90, (Z)—N-(2-(Methylsulfinyl)propyl)-4-(1,4,4,4-tetrafluoro-3-(3,4,5-trichlorophenyl)but-1-en-1-yl)-2-(trifluoromethyl)benzamide] | 50 to 100% | 50 to 100% |
| C[C@H](CS(=O)(=O)CC(F)(F)F)NC(=O)c1ccc(/C(F)=C/C(c2cc(F)c(F)c(Br)c2)C(F)(F)F)cc1C(F)(F)F (stereo partly drawn) [F94, 4-((Z)-3-(3-Bromo-4,5-difluorophenyl)-1,4,4,4-tetrafluorobut-1-en-1-yl)-N—((R)-1-((2,2,2-trifluoroethyl)sulfonyl)propan-2-yl)-2-(trifluoromethyl)benzamide] | 50 to 100% | 50 to 100% |
| C[C@H](C[S+]([O-])CC(C)(F)F)NC(=O)c1ccc(/C(F)=C/C(c2cc(Cl)c(Cl)c(Cl)c2)C(F)(F)F)cc1C(F)(F)F (stereo partly drawn) [F96, N-((2R)-1-((2,2-Difluoropropyl)sulfinyl)propan-2-yl)-4-((Z)-1,4,4,4-tetrafluoro-3-(3,4,5-trichlorophenyl)but-1-en-1-yl)-2-(trifluoromethyl)benzamide] | 50 to 100% | 50 to 100% |
| C[C@H](CS(=O)(=O)CC(C)(F)F)NC(=O)c1ccc(/C(F)=C/C(c2cc(Cl)c(Cl)c(Cl)c2)C(F)(F)F)cc1C(F)(F)F (stereo partly drawn) [F97, N—((R)-1-((2,2-difluoropropyl)sulfonyl)propan-2-yl)-4-((Z)-1,4,4,4-tetrafluoro-3-(3,4,5-trichlorophenyl)but-1-en-1-yl)-2-(trifluoromethyl)benzamide] | 50 to 100% | 50 to 100% |
| CC(C)(CS(C)(=O)=O)NC(=O)c1ccc(/C(F)=C/C(c2cc(Cl)c(Cl)c(Cl)c2)C(F)(F)F)cc1C(F)(F)F (stereo not drawn) [F100, (Z)—N-(2-Methyl-1-(methylsulfonyl)propan-2-yl)-4-(1,4,4,4-tetrafluoro-3-(3,4,5-trichlorophenyl)but-1-en-1-yl)-2-(trifluoromethyl)benzamide] | 50 to 100% | 50 to 100% |
| CSC(C)C(C)NC(=O)c1ccc(/C(F)=C/C(c2cc(Cl)c(Cl)c(Cl)c2)C(F)(F)F)cc1C(F)(F)F (stereo not drawn) [F101, (Z)—N-(3-(methylthio)butan-2-yl)-4-(1,4,4,4-tetrafluoro-3-(3,4,5-trichlorophenyl)but-1-en-1-yl)-2-(trifluoromethyl)benzamide] | 50 to 100% | 50 to 100% |
| C[C@H](CS(=O)(=O)CC(F)(F)F)NC(=O)c1ccc(/C(F)=C/C(c2ccc(OC(F)(F)F)c(Cl)c2)C(F)(F)F)cc1C(F)(F)F (stereo partly drawn) [F109, 4-((Z)-3-(3-Chloro-4-(trifluoromethoxy)phenyl)-1,4,4,4-tetrafluorobut-1-en-1-yl)-N—((R)-1-((2,2,2-trifluoroethyl)sulfonyl)propan-2-yl)-2-(trifluoromethyl)benzamide] | 50 to 100% | 50 to 100% |
| C[C@H](CS(=O)(=O)CC(F)(F)F)NC(=O)c1ccc(/C(F)=C/C(c2cc(Cl)cc(OC(F)(F)F)c2)C(F)(F)F)cc1C(F)(F)F (stereo partly drawn) [F110, 4-((Z)-3-(3-Chloro-5-(trifluoromethoxy)phenyl)-1,4,4,4-tetrafluorobut-1-en-1-yl)-N—((R)-1-((2,2,2-trifluoroethyl)sulfonyl)propan-2-yl)-2-(trifluoromethyl)benzamide] | 50 to 100% | 50 to 100% |
| C=Cc1cc(Cl)cc(C(/C=C(\F)c2ccc(C(=O)N[C@H](C)CS(=O)(=O)CC(F)(F)F)c(C(F)(F)F)c2)C(F)(F)F)c1 (stereo partly drawn) [F112, 4-((Z)-3-(3-Chloro-5-vinylphenyl)-1,4,4,4-tetrafluorobut-1-en-1-yl)-N—((R)-1-((2,2,2-trifluoroethyl)sulfonyl)propan-2-yl)-2-(trifluoromethyl)benzamide] | 50 to 100% | 50 to 100% |
| C[C@H](CSCC(C)(F)F)NC(=O)c1ccc(/C(F)=C/C(c2cc(Cl)c(Cl)c(Cl)c2)C(F)(F)F)cc1C(F)(F)F (stereo partly drawn) [F113, N—((R)-1-((2,2-Difluoropropyl)thio)propan-2-yl)-4-((Z)-1,4,4,4-tetrafluoro-3-(3,4,5-trichlorophenyl)but-1-en-1-yl)-2-(trifluoromethyl)benzamide] | 50 to 100% | 50 to 100% |
| C=C(C)c1cc(C(/C=C(\F)c2ccc(C(=O)N[C@H](C)CS(=O)(=O)CC(F)(F)F)c(C(F)(F)F)c2)C(F)(F)F)cc(Cl)c1Cl (stereo partly drawn) [F114, 4-((Z)-3-(3,4-Dichloro-5-(prop-1-en-2-yl)phenyl)-1,4,4,4-tetrafluorobut-1-en-1-yl)-N—((R)-1-((2,2,2-trifluoroethyl)sulfonyl)propan-2-yl)-2-(trifluoromethyl)benzamide] | 50 to 100% | 50 to 100% |
| C=Cc1cc(/C(F)=C/C(c2cc(Cl)c(Cl)c(Cl)c2)C(F)(F)F)ccc1C(=O)N[C@H](C)CS(=O)(=O)CC(F)(F)F (stereo partly drawn) [F116] | 50 to 100% | 50 to 100% |
| C[C@H](CSCC(F)(F)F)NC(=O)c1ccc(/C(F)=C/C(c2cc(F)c(Cl)c(C(F)(F)F)c2)C(F)(F)F)cc1C(F)(F)F (stereo partly drawn) [F117, 4-((Z)-3-(4-Chloro-3-fluoro-5-(trifluoromethyl)phenyl)-1,4,4,4-tetrafluorobut-1-en-1-yl)-N—((R)-1-((2,2,2-trifluoroethyl)thio)propan-2-yl)-2-(trifluoromethyl)benzamide] | 50 to 100% | 50 to 100% |
